What all share (assay type): cell-based, human
Assay [1] deals with glioblastoma cell lines U87-MG, HS683 and U373-MG. Nature of the assay: Click-iT EdU cell proliferation assay after gabapentin treatment. The note with it: concentration-dependent. How it is done:
(§1) (i) Treatment with dimethyl-α-ketoglutarate and Gabapentin 5×10^4 cells/well were seeded in 24-well plates in a total volume of 500 μl cell culture medium. The medium was removed 16 hours after seeding the cells, and replaced with 500 μl medium containing 5 mM or 10 mM dimethyl-α-ketoglutarate (Dimethyl 2-oxoglutarate; Sigma-Aldrich) or 5 mM, 10 mM or 20 mM gabapentin ([…]; Sigma-Aldrich). Corresponding volumes of 200 mM HEPES buffer (pH 7.4) were added to the respective control wells.
To assess the proliferation of glioma cells after treatment with gabapentin or after lentiviral knockdown, the Click-iT® EdU cell proliferation assay (Invitrogen, Karlsruhe, Germany) was used following the manufacturer's instructions. The cells were incubated with 10 μM of the nucleoside analog EdU (5-ethynyl-2′deoxyuridine) for 16 hours. Quantification of cells that incorporated EdU was performed using FACS Canto II (BD Biosciences).
The human glioblastoma cell lines U87-MG (HTB-14), HS683 (HTB-138) and U373-MG (HTB-17; LGC Standards, Teddington TW11 0LY U.K.) were cultured in Dulbecco's Minimal Essential Medium supplemented with 10% fetal calf serum and 1% penicillin/streptomycin-mix. 5×10^4 cells/well were seeded in 24 well plates in a total volume of 500 μl cell culture medium. […]

Another assay has as its system glioma cell lines. Nature of the assay: Cell-cycle analysis, G1 phase. The note with it: gabapentin treatment, 20 hours. As to the method: (§2) Cell-cycle analysis was performed 20 hours after treatment with gabapentin and 6 days after lentiviral transduction. Nicoletti buffer (0.1% sodium citrate, pH7.4, 0.05% Triton X-100, 50 μg propidium iodide) was added to the wells containing both dead and living cells. After 4 hours in the dark at 4° C., DNA content was analysed by flow cytometry using FACS Canto II (BD Biosciences, San Jose, Calif., USA). FACS Diva software was used to quantify the distribution of cells in each cell-cycle phase: sub-G1 (dead cells), G1, S, and G2/M. For investigation of apoptotic activity after lentivira knockdown NCH421k cells were incubated with annexin V-P (Phycoerythrin) and 7-AAD (7-aminoactinomycin D, BD Biosciences) for 15 minutes in the dark, immediately followed by flow cytometry.

A further assay relates to glioma cells. Nature of the assay: Glutamate quantification in supernatant of gabapentin-treated cells. The note with it: 20 mM, 6 and 12 hours after start of treatment. How it is done: as §1
Glutamate concentration in the supernatant of cells treated with gabapentin was determined using the glutamine/glutamate determination Kit (GLN-1; Sigma-Aldrich) according to the manufacturer's instructions. The reaction volumes were scaled down to 100 μl total volume and absorbance was measured in triplicate in a microplate (Corning° 96 Well Clear Flat Bottom UV-Transparent Microplate) using a Tecan Infinite M200 plate reader (Tecan, Austria). Data were normalised to the number of cells per well.

In a further assay the test system is U87-MG. Description: Cell-cycle analysis (propidium iodide, flow cytometry), sub-G1 fraction. The note with it: 20 mM, 20 hours after treatment. As to the method:
as §2

For a further assay, the system named is HS683. Described as above. The conditions noted are these: HS683, 20 mM, 20 hours after treatment. How it is done:
as §2

A further assay concerns U373-MG. The assay is described as above. The note with it: 20 mM, 20 hours after treatment. How it is done:
as §2

In the next assay the test system is U-87MG cells. Description: 1H-NMR spectroscopy of cell extracts, intracellular BCAA levels. The conditions noted are these: 20 mM gabapentin for 20 hours vs control. As to the method: as §1
(§3) Cells were harvested by trypsinization, washed once with ice-cold PBS, and the cell pellet was frozen at −80° C. Typically 1×10^8 harvested cells were subjected to perchloric acid extraction followed by KOH neutralization according to published protocols^50. Briefly, 2 mL of ice-cold 1 N HClO4 were added to a frozen pellet of harvested cells. The pellet was disrupted using a Teflon pestle and a glass homogeniser. 1 mL of ice-cold water was added to the lysate, vortexed for 90 s and centrifuged at 10000×g for 10 min at 4° C. The pellet was re-extracted and the supernatants were combined. The extract was neutralised with KOH and the pH was adjusted to 6.5-7.0 Precipitated KClO4 was pelleted at 25000×g for 20 min and the supernatant was lyophilised.
(§4) The lyophilised extract residues were dissolved in 0.5 ml of a D2O buffer (99.9% D) containing 30 mM sodium phosphate and 0.1 mM sodium azide (pH 7.02). For quantitative analysis a reference capillary (1.5 mm OD, 0.99 mm ID) was filled with a solution of 11 mM trimethylsilyl-2,2,3,3-tetradeuteropropanoic acid (TSP, sodium salt) in the D2O buffer described above. Subsequently, the capillary was sealed in the flame of a Bunsen burner. A calibration solution was prepared by placing weighed amounts of glucose and citric acid in the D2O buffer to give the calculated concentrations of 10.49 mM glucose and 4.95 […]. ^1H-NMR spectra of the calibration solution+capillary were acquired at 600 MHz (Avance AV-600, Bruker BioSpin GmbH) using a standard 5-mm NMR tube and a triple-resonance inverse probe under the same conditions to be used for the extracts (20° C., presaturation of residual HDO signal, repetition time TR=7 s, 30° flip angle). […] Cell extracts were measured with the calibrated reference capillary inserted (512 transients in 1 hour), and the ^1H-NMR signals for the branched-chain amino acids, various metabolites, and the TSP reference were integrated. The TSP integral was defined as 4.60 mM so that the metabolite signal integrals gave directly the metabolite concentrations in mM (μmol/ml) for the 0.5 ml volumes used.

For the next assay, the system named is U-373MG cells. Described as above. The conditions noted are these: 20 mM gabapentin for 20 hours vs control. As to the method:
as §1, §3, §4

The test system of a further assay is BCAT1 expression. Nature of the assay: BCAT1 RNA and protein expression (qRT-PCR, Western blot) in glioma cell lines. The conditions noted are these: increasing concentration of dimethyl-alpha-KG in the culture medium (5 mM or 10 mM). How it is done:
Total RNA was extracted using the AllPrep DNA/RNA/Protein Mini Kit (Qiagen) according to the manufacturer's instructions. FirstChoice® Human Brain Reference Total RNA from Ambion served as normal brain RNA pool (n=23 donors). Total RNA (500 ng) was reverse-transcribed using random primers and superscript II (Invitrogen, Karlsruhe, Germany) according to the manufacturer's instructions. Each complimentary DNA sample was analysed in triplicate with the Applied Biosystems Prism 7900HT Fast Real-Time PCR System (Applied Biosystems, Foster City, Calif., USA) using Absolute SYBR Green ROX Mix (ABgene, Epsom, UK). The relative amount of specific mRNA was normalised to ARF, B2M and TBP.
All experiments involving the use of human tissues are carries out in line with the guidelines of the institutional review board of the Medical Faculty at Heinrich Heine University Dusseldorf. Fresh frozen human tumor tissue samples and a non-neoplastic brain tissue sample were lysed in guanidine isothiocyanate solution (4M) using an ULTRA-TURRAX (IKA, Staufen, Germany) and subjected to CsCl-ultracentrifugation. […]
Infection of glioma cells with virus at an M.O.I. of 2 was carried out in the presence of 8 μg/ml of polybrene (Chemicon, Billerica, Mass., USA). […] Quantification of BCAT1 and IDH1 knockdown was assessed by quantitative real-time PCR and Western blot. […]
Background: Real-time PCR tracks product formation cycle by cycle.

For `NCC1(CC(=O)O)CCCCC1` [Gabapentin, 1-(aminomethyl) cyclohexaneacetic acid], the “reduction of cell proliferation” value in assay [1] (5, 10 and 20 mM, all cell lines, vs mock treated cells (Example 2)) is reported as 20-55%. Moreover, the “reduction of proliferation, estimated based on EdU-incorporation” value in assay [1] (20 hours (Example 9, FIG. 6a)) is “up to 56%”. The “cell cycle effect (fraction of cells in G1-phase)” value in the assay on glioma cell lines is given as “partial G1-arrest”. Besides, the Glutamate release entry with glioma cells is listed as “significantly reduced”. For the same compound, the “Average sub-G1” value is 2.4% with U87-MG, 10.1% in the assay with HS683 and 2.8% with U373-MG. Further, the results for the “increase of isoleucine (Ile) level, factor” value with U-87MG cells and in the assay on U-373MG cells were 1.19 and 2.32, respectively. Also, the “increase of leucine (Leu) level, factor” value with U-87MG cells is listed as 1.38; with U-373MG cells, 2.18. The “increase of valine (Val) level, factor” value is 1.09 with U-87MG cells and 1.83 in the assay with U-373MG cells.

`COC(=O)CCC(=O)C(=O)OC` [dimethyl-alpha-KG, Dimethyl 2-oxoglutarate]: the BCAT1 expression entry in the assay on BCAT1 expression is “upregulated”.
